Reference: patent US7968521B2, “Stable cystal of protected pseudouridine” (Yamasa Corporation, priority 2005, dated 2011)

How the values were obtained:
[1] = Stability (1): storage in a sealed vessel at 60° C. and a relative humidity of 30%, percent remaining by HPLC; type: physicochemical; conditions: relative humidity 30%; for Percent remaining (%) Day 3 / Percent remaining (%) Day 14 / Percent remaining (%) Day 23: sealed vessel; for Percent remaining (%) Day 3: Day 3, HPLC; for Percent remaining (%) Day 14: Day 14, HPLC; for Percent remaining (%) Day 23: Day 23, HPLC
Description: (§1) The crystalline 5′-O-(4,4′-dimethoxytrityl)pseudouridine produced in Example 1 was maintained in a sealed vessel at 60° C. and a relative humidity of 30%. Thereafter, the percent remaining of the compound was determined through HPLC, and the value was compared with that of the same compound in amorphous form, which had been separately prepared, so as to evaluate stability.

[2] = Stability (2): storage in a desiccator at 25±2° C. and a relative humidity of 33%, 57% or 75%, percent remaining by HPLC; type: physicochemical; conditions: fourteen days; for Percent remaining (%) RH 33% / Percent remaining (%) RH 57% / Percent remaining (%) RH 75%: desiccator, HPLC
Description: as §1, with “desiccator” for “sealed vessel”, “25±2°” for “60°”, “33%, 57%, or 75%. Fourteen days after,” for “30%. Thereafter,”, “stability. […] At a relative humidity of 75%, the stability clearly varied between the two samples.” for “stability.”

Percent remaining (%) Day 3 [1] [%] | Percent remaining (%) Day 14 [1] [%] | Percent remaining (%) Day 23 [1] [%] | Percent remaining (%) RH 33% [2] [%] | Percent remaining (%) RH 57% [2] [%] | Percent remaining (%) RH 75% [2] [%] | thermal stability compared with the compound of amorphous form [1] | stability against moisture compared with the amorphous form ([2]; relative humidity 33%, 57% or 75%) | Structure (SMILES)
97.8 | 88.6 | 62.1 | 98.0 | 96.7 | 0.1 |  |  | COc1ccc(C(OC[C@H]2O[C@@H](c3c[nH]c(=O)[nH]c3=O)[C@H](O)[C@@H]2O)(c2ccccc2)c2ccc(OC)cc2)cc1 [Amorphous, 5′-O-(4,4′-dimethoxytrityl)pseudouridine, reference compound]
99.0 | 97.6 | 95.7 | 98.7 | 98.5 | 60.7 | higher thermal stability | more stable against moisture | COc1ccc(C(OC[C@H]2O[C@@H](c3c[nH]c(=O)[nH]c3=O)[C@H](O)[C@@H]2O)(c2ccccc2)c2ccc(OC)cc2)cc1 [Crystalline, 5′-O-(4,4′-dimethoxytrityl)pseudouridine]
